Measurements published in patent US9388189B2, “Pyrrolotriazinone derivatives as PI3K inhibitors” (ALMIRALL, S.A., priority 2012, dated 2016).

These molecules were tested against PI3Kδ (PI3Kd) (Homo sapiens (Human), UniProt O00329) (assay: PI3K HTRF enzymatic inhibition assay (cell-free), delta isoform). Settings: read-out: IC50 PI3Kd HTRF; recombinant PI3K delta, [ATP] 15 μM, [PIP2] 2 μM, 30 min preincubation.
Chain of PI3Kδ (PI3Kd) (O00329 whole entry, canonical isoform): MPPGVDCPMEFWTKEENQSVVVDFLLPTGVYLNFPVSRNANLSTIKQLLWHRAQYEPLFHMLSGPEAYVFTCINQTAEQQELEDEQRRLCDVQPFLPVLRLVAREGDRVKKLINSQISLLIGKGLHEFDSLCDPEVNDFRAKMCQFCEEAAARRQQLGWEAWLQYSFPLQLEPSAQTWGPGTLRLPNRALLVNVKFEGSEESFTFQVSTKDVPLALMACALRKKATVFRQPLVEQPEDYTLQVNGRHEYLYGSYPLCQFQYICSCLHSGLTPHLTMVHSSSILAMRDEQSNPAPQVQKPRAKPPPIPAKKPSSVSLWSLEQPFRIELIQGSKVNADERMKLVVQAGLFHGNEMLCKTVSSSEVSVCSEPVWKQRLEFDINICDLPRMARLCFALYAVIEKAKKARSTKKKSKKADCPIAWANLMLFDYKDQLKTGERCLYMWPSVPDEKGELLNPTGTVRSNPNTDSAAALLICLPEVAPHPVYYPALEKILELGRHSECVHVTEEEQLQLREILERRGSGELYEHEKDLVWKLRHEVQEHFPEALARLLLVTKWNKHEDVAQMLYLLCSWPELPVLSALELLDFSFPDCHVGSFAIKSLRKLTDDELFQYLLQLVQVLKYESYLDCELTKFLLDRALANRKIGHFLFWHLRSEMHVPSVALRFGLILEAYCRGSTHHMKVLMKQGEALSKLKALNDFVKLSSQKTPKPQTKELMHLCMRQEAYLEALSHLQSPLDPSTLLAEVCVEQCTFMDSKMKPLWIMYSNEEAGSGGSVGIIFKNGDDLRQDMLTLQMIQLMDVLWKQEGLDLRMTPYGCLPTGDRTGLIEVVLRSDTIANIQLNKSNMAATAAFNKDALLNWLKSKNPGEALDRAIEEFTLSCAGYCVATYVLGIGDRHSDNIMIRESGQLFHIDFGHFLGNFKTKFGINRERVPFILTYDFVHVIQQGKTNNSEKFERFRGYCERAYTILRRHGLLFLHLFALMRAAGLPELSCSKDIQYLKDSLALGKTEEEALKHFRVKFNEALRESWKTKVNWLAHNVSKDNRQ
Chain of PI3Kδ (PI3Kd) (P27986 whole entry partner, canonical isoform): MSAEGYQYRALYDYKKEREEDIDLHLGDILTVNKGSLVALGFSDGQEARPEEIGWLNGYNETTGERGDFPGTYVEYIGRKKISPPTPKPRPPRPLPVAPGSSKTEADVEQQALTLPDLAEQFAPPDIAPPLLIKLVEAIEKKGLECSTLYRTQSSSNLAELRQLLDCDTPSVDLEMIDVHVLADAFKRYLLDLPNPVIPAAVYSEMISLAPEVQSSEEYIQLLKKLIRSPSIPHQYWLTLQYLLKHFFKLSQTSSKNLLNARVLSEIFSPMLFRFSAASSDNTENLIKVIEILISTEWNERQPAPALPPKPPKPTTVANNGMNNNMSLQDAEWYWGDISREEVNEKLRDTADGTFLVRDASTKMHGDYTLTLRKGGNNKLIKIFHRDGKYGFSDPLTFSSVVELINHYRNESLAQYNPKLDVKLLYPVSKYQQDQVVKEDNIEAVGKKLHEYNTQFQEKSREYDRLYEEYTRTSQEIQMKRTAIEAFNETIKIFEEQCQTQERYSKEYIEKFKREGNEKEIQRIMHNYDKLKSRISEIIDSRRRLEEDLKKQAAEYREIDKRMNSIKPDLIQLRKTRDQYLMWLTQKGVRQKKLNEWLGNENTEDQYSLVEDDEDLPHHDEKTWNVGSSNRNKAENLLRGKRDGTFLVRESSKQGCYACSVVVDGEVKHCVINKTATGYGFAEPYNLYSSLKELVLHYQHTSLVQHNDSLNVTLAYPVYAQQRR
Description: Compounds were screened for their ability to inhibit PI3Kα (PI3Ka), PI3Kβ (PI3Kb), PI3Kδ (PI3Kd) and PI3Kγ (PI3Kg) using a cell-free based PI3K HTRF™ assay (Millipore, ref. #33-017).
PI-3 Kinase HTRF kit (ref. #33-037) and the different PI3K recombinant isoforms (ref. #14-602, ref. #14-603, ref. #14-604, ref. #15-558 for Alpha, Beta, Delta and Gamma respectively) were purchased at Millipore (expressed in insect cells). ATP was purchased at Sigma Aldrich (ref. #A7699).
The compounds were pre-incubated with the enzyme for 30 min before starting of the catalytic reaction. [PIP2] was used at its Km. […] Time of assay and [Enzyme] were optimized to work in the linear range. Stop and Detection mixtures were used as specified in the Millipore PI-3 Kinase kit.
Reaction time and enzyme concentration in the assay will depend of each batch.
All experiments were analysed using Activity Base software from IDBS and the four-parameter log equation.

Going from `Cc1ccn2nc([C@H](C)Nc3ncnc4[nH]cc(-c5cc(O)cc(NS(=O)(=O)CCN(C)C)c5)c34)n(-c3ccccc3)c(=O)c12` [Example 150, (S)-2-(Dimethylamino)-N-(3-hydroxy-5-(4-((1-(5-methyl-4-oxo-3-phenyl-3,4-dihydropyrrolo[2,1-f][1,2,4]triazin-2-yl)ethyl)amino)-7H-pyrrolo[2,3-d]pyrimidin-5-yl)phenyl)ethanesulfonamide] to `Cc1ccn2nc([C@H](C)Nc3ncnc4[nH]cc(-c5cc(NS(C)(=O)=O)cc(C(=O)N(C)C)c5)c34)n(-c3ccccc3)c(=O)c12` [Example 219, (S)—N,N-dimethyl-3-(4-((1-(5-methyl-4-oxo-3-phenyl-3,4-dihydropyrrolo[2,1-f][1,2,4]triazin-2-yl)ethyl)amino)-7H-pyrrolo[2,3-d]pyrimidin-5-yl)-5-(methylsulfonamido)benzamide], the IC50 falls from 1 nM to 0.3 nM (3.3-fold). The second is the more potent here.

Compared with `Cc1ccn2nc([C@H](C)Nc3ncnc4[nH]cc(-c5cc(C(F)(F)F)nn5C)c34)n(-c3ccccc3)c(=O)c12` [Example 151, (S)-5-Methyl-2-(1-((5-(1-methyl-3-(trifluoromethyl)-1H-pyrazol-5-yl)-7H-pyrrolo[2,3-d]pyrimidin-4-yl)amino)ethyl)-3-phenylpyrrolo[2,1-f][1,2,4]triazin-4(3H)-one], `Cc1ccn2nc([C@H](C)Nc3ncnc4[nH]cc(-c5ccn(CC(C)(C)CO)n5)c34)n(-c3ccccc3)c(=O)c12` [Example 155, (S)-2-(1-((5-(1-(3-Hydroxy-2,2-dimethylpropyl)-1H-pyrazol-3-yl)-7H-pyrrolo[2,3-d]pyrimidin-4-yl)amino)ethyl)-5-methyl-3-phenylpyrrolo[2,1-f][1,2,4]triazin-4(3H)-one] is 17-fold lower in IC50: 5 nM for the first, 0.3 nM for the second. The second is the more potent here.

`Cc1ccn2nc([C@H](C)Nc3ncnc(N)c3-c3ccc(N4CCN(C(=O)OC(C)(C)C)CC4)cc3)n(-c3ccccc3)c(=O)c12` [Example 152, (S)-tert-Butyl 4-(4-(4-amino-6-((1-(5-methyl-4-oxo-3-phenyl-3,4-dihydropyrrolo[2,1-f][1,2,4]triazin-2-yl)ethyl)amino)pyrimidin-5-yl)phenyl)piperazine-1-carboxylate] and `Cc1ccn2nc([C@H](C)Nc3ncnc(N)c3-c3ccc(N4CCNCC4)cc3)n(-c3ccccc3)c(=O)c12` [Example 162, (S)-2-(1-((6-Amino-5-(4-(piperazin-1-yl)phenyl)pyrimidin-4-yl)amino)ethyl)-5-methyl-3-phenylpyrrolo[2,1-f][1,2,4]triazin-4(3H)-one] are within 1.5-fold of each other in IC50: 100 nM for the first, 132 nM for the second.

Compared with `Cc1ccn2nc([C@H](C)Nc3ncnc(N)c3-c3cc(O)cc(C(=O)N(C)C)c3)n(-c3ccccc3)c(=O)c12` [Example 156, (S)-3-(4-Amino-6-((1-(5-methyl-4-oxo-3-phenyl-3,4-dihydropyrrolo[2,1-f][1,2,4]triazin-2-yl)ethyl)amino)pyrimidin-5-yl)-5-hydroxy-N,N-dimethyl benzamide], `Cc1ccn2nc([C@H](C)Nc3ncnc(N)c3-c3cccc(C(=O)Nc4cccc(O)c4)c3)n(-c3ccccc3)c(=O)c12` [Example 168, (S)-3-(4-Amino-6-((1-(5-methyl-4-oxo-3-phenyl-3,4-dihydropyrrolo[2,1-f][1,2,4]triazin-2-yl)ethyl)amino)pyrimidin-5-yl)-N-(3-hydroxyphenyl)benzamide] is 2-fold higher in IC50: 1 nM for the first, 2 nM for the second.

First: COc1ncc(-c2c(N)ncnc2N[C@@H](C)c2nn3ccc(C)c3c(=O)n2-c2ccccc2)cc1NS(=O)(=O)c1ccc(O)cc1 [Example 157, (S)—N-(5-(4-Amino-6-((1-(5-methyl-4-oxo-3-phenyl-3,4-dihydropyrrolo[2,1-f][1,2,4]triazin-2-yl)ethyl)amino)pyrimidin-5-yl)-2-methoxypyridin-3-yl)-4-hydroxybenzenesulfonamide]
Second: CCOc1ncc(-c2c(N)ncnc2N[C@@H](C)c2nn3ccc(C)c3c(=O)n2-c2ccccc2)cc1NS(=O)(=O)c1ccc(O)cc1 [Example 187, (S)—N-(5-(4-Amino-6-((1-(5-methyl-4-oxo-3-phenyl-3,4-dihydropyrrolo[2,1-f][1,2,4]triazin-2-yl)ethyl)amino)pyrimidin-5-yl)-2-ethoxypyridin-3-yl)-4-hydroxybenzenesulfonamide]
The IC50 of the first is 3.5-fold lower: 0.2 nM for the first, 0.7 nM for the second.

First: Cc1ccn2nc([C@H](C)Nc3ncnc4[nH]cc(-c5ccn(Cc6ccccc6O)n5)c34)n(-c3ccccc3)c(=O)c12 [Example 159, (S)-2-(1-((5-(1-(2-Hydroxybenzyl)-1H-pyrazol-3-yl)-7H-pyrrolo[2,3-d]pyrimidin-4-yl)amino)ethyl)-5-methyl-3-phenylpyrrolo[2,1-f][1,2,4]triazin-4(3H)-one]
Second: Cc1ccn2nc([C@H](C)Nc3ncnc4[nH]cc(-c5ccn(-c6cccc(O)c6)n5)c34)n(-c3ccccc3)c(=O)c12 [Example 163, (S)-2-(1-((5-(1-(3-Hydroxyphenyl)-1H-pyrazol-3-yl)-7H-pyrrolo[2,3-d]pyrimidin-4-yl)amino)ethyl)-5-methyl-3-phenylpyrrolo[2,1-f][1,2,4]triazin-4(3H)-one]
The IC50 of the first is 20-fold higher: 4 nM for the first, 0.2 nM for the second. The second is the more potent here.

`C[C@H](Nc1ncnc2[nH]cc(-c3cc(NS(C)(=O)=O)cc4[nH]ccc34)c12)c1nn2cccc2c(=O)n1-c1ccccc1` [Example 165, (S)—N-(4-(4-((1-(4-Oxo-3-phenyl-3,4-dihydropyrrolo[2,1-f][1,2,4]triazin-2-yl)ethyl)amino)-7H-pyrrolo[2,3-d]pyrimidin-5-yl)-1H-indol-6-yl)methanesulfonamide] and `Cc1ccn2nc([C@H](C)Nc3ncnc4[nH]cc(-c5cc(NS(C)(=O)=O)cc6[nH]ncc56)c34)n(-c3ccccc3)c(=O)c12` [Example 181, (S)—N-(4-(4-((1-(5-Methyl-4-oxo-3-phenyl-3,4-dihydropyrrolo[2,1-f][1,2,4]triazin-2-yl)ethyl)amino)-7H-pyrrolo[2,3-d]pyrimidin-5-yl)-1H-indazol-6-yl)methanesulfonamide] are the same in IC50: 5 nM for the first, 5 nM for the second.

Compared with `Cc1ccn2nc(CNc3ncnc(N)c3-c3cncc(C(F)F)c3)n(-c3ccccc3)c(=O)c12` [Example 169, 2-(((6-Amino-5-(5-(difluoromethyl)pyridin-3-yl)pyrimidin-4-yl)amino)methyl)-5-methyl-3-phenylpyrrolo[2,1-f][1,2,4]triazin-4(3H)-one], `CCNc1ncc(-c2c(N)ncnc2N[C@@H](C)c2nn3ccc(C)c3c(=O)n2-c2ccccc2)cc1NS(=O)(=O)c1ccc(O)cc1` [Example 218, (S)—N-(5-(4-Amino-6-((1-(5-methyl-4-oxo-3-phenyl-3,4-dihydropyrrolo[2,1-f][1,2,4]triazin-2-yl)ethyl)amino)pyrimidin-5-yl)-2-(ethylamino)pyridin-3-yl)-4-hydroxybenzenesulfonamide] is 1.7-fold higher in IC50: 3 nM for the first, 5 nM for the second.

First: Cc1ccn2nc([C@H](C)Nc3ncnc(N)c3-c3cc(O)c4ccn(S(=O)(=O)c5ccc(O)cc5F)c4c3)n(-c3ccccc3)c(=O)c12 [Example 171, (S)-2-(1-((6-Amino-5-(1-((2-fluoro-4-hydroxyphenyl)sulfonyl)-4-hydroxy-1H-indol-6-yl)pyrimidin-4-yl)amino)ethyl)-5-methyl-3-phenylpyrrolo[2,1-f][1,2,4]triazin-4(3H)-one]
Second: COc1ccc(S(=O)(=O)n2ccc3ccc(-c4c(N)ncnc4N[C@@H](C)c4nn5ccc(C)c5c(=O)n4-c4ccccc4)cc32)cc1 [Example 199, (S)-2-(1-((6-Amino-5-(1-((4-methoxyphenyl)sulfonyl)-1H-indol-6-yl)pyrimidin-4-yl)amino)ethyl)-5-methyl-3-phenylpyrrolo[2,1-f][1,2,4]triazin-4(3H)-one]
The IC50 of the first is 1.7-fold higher: 5 nM for the first, 3 nM for the second. The second is the more potent here.

`Cc1ccn2nc([C@H](C)Nc3ncnc4[nH]cc(-c5cc(O)cc(NC(N)=O)c5)c34)n(-c3ccccc3)c(=O)c12` [Example 175, (S)-1-(3-Hydroxy-5-(4-((1-(5-methyl-4-oxo-3-phenyl-3,4-dihydropyrrolo[2,1-f][1,2,4]triazin-2-yl)ethyl)amino)-7H-pyrrolo[2,3-d]pyrimidin-5-yl)phenyl)urea] and `Cc1ccn2nc([C@H](C)Nc3ncnc4[nH]cc(-c5cc(NS(C)(=O)=O)c6cc[nH]c6c5)c34)n(-c3ccccc3)c(=O)c12` [Example 209, (S)—N-(6-(4-((1-(5-Methyl-4-oxo-3-phenyl-3,4-dihydropyrrolo[2,1-f][1,2,4]triazin-2-yl)ethyl)amino)-7H-pyrrolo[2,3-d]pyrimidin-5-yl)-1H-indol-4-yl)methanesulfonamide] are within 1.5-fold of each other in IC50: 0.3 nM for the first, 0.2 nM for the second.

Going from `C[C@H](Nc1ncnc2[nH]cc(-c3cc(NS(C)(=O)=O)cc(OS(C)(=O)=O)c3)c12)c1nn2cccc2c(=O)n1-c1ccccc1` [Example 176, (S)-3-(Methylsulfonamido)-5-(4-((1-(4-oxo-3-phenyl-3,4-dihydropyrrolo[2,1-f][1,2,4]triazin-2-yl)ethyl)amino)-7H-pyrrolo[2,3-d]pyrimidin-5-yl)phenyl methanesulfonate] to `Cc1ccn2nc([C@H](C)Nc3ncnc(N)c3C(=O)Oc3cc(O)cc(NS(C)(=O)=O)c3)n(-c3ccccc3)c(=O)c12` [Example 195, (S)-3-Hydroxy-5-(methylsulfonamido)phenyl 4-amino-6-((1-(5-methyl-4-oxo-3-phenyl-3,4-dihydropyrrolo[2,1-f][1,2,4]triazin-2-yl)ethyl)amino)pyrimidine-5-carboxylate], the IC50 falls from 1 nM to 0.2 nM (5-fold).

`Cc1nnc(-c2cccc(-c3c[nH]c4ncnc(N[C@@H](C)c5nn6ccc(C)c6c(=O)n5-c5ccccc5)c34)c2)o1` [Example 188, (S)-5-Methyl-2-(1-((5-(3-(5-methyl-1,3,4-oxadiazol-2-yl)phenyl)-7H-pyrrolo[2,3-d]pyrimidin-4-yl)amino)ethyl)-3-phenylpyrrolo[2,1-f][1,2,4]triazin-4(3H)-one] and `Cc1ccn2nc([C@H](C)Nc3ncnc4[nH]cc(-c5ccnc(N6CCC(N(C)C)CC6)c5)c34)n(-c3ccccc3)c(=O)c12` [Example 225, (S)-2-(1-((5-(2-(4-(Dimethylamino)piperidin-1-yl)pyridin-4-yl)-7H-pyrrolo[2,3-d]pyrimidin-4-yl)amino)ethyl)-5-methyl-3-phenylpyrrolo[2,1-f][1,2,4]triazin-4(3H)-one] are the same in IC50: 0.4 nM for the first, 0.4 nM for the second.
